{"source": "paper PMC10958225", "about": "“Therapeutic potential of orally applied KB-R7943 in streptozotocin-induced neuropathy in rats” (Heliyon, 2024)", "key": {"[1]": {"test_system": "STZ-treated rats with neuropathy", "assay": "Forced swim test (FST)", "type": "in vivo, rat", "conditions": "10 mg/kg p.o. once daily from day 28, test on day 41, 5-min test", "method": "(§1) On the day of diabetic state induction, rats were deprived of food for 6 h (from 8 a.m. to 2 p.m.). A single i.p. injection was applied with 55 mg/kg STZ in the ice-cold citrate buffer (0.1 M pH 4.4). The observed polydipsia, polyuria, reduced thriving with lower body weight, and poor coating appearance indirectly indicated the development of diabetes. On day 28, after 6 h of fasting, blood glucose was measured with an Xpress Statstrip Glucometer (Nova Biomedical Corporation, Waltham, MA, USA) from the tail vein. A cut-off value of blood glucose >13 mmol/l was adopted. […] Controls were once i.p. injected with ice-cold citrate buffer 0.1 M pH 4.4 only.\n(§2) Three animals per cage were housed for the experiment 2 (Fig. 3B). Rats were gently manipulated daily before undertaking the actual behavior tests. […] Body weight (BW), coat score (CS), CPT, R–S, and FT were evaluated on day 28th post-STZ, and after that, rats were distributed into the treatment groups as follows. • C-Veh – Controls, vehiculum treatment (n = 12) • NP-Veh – STZ-treated rats with neuropathy, vehiculum treatment (n = 12) • NP-KB-R7943 – 5 mg - STZ-treated rats, with neuropathy, KB-R7943 5 mg/kg treatment (n = 12) • NP-KB-R7943 – 10 mg – STZ-treated rats, with neuropathy, KB-R7943 10 mg/kg (n = 12) • NP-AMT – 10 mg - STZ-treated rats, with neuropathy, amitriptyline 10 mg/kg (n = 12). […]"}, "[2]": {"test_system": "STZ-treated rats with neuropathy", "assay": "Formalin test (0.5% formalin)", "type": "in vivo, rat", "method": "as §1\n(§3) Three animals per cage were housed for the experiment 2 (Fig. 3B). Rats were gently manipulated daily before undertaking the actual behavior tests. One week after adaptation, the Randl-Stellito (R–S) test, cold plate test (CPT), and formalin tests (FT) were performed at baseline. After that, the diabetes model was made with 48 rats. Twelve animals served as controls. Body weight (BW), coat score (CS), CPT, R–S, and FT were evaluated on day 28th post-STZ, and after that, rats were distributed into the treatment groups as follows. • C-Veh – Controls, vehiculum treatment (n = 12) • NP-Veh – STZ-treated rats with neuropathy, vehiculum treatment (n = 12) • NP-KB-R7943 – 5 mg - STZ-treated rats, with neuropathy, KB-R7943 5 mg/kg treatment (n = 12) • NP-KB-R7943 – 10 mg – STZ-treated rats, with neuropathy, KB-R7943 10 mg/kg (n = 12) • NP-AMT – 10 mg - STZ-treated rats, with neuropathy, amitriptyline 10 mg/kg (n = 12).\n(§4) OraPlus was used as a vehiculum for gavage (16 gauge feeding tube 10 ml/kg) in all rats. KB-R7943 in two doses (5 or 10 mg/kg) or amitriptyline 10 mg/kg was applied once daily until day 49. Behavior tests were performed […] after the oral gavage of the corresponding day, in the afternoon, starting from 2 p.m. […] On day 41, an FST was performed, and at 2 p.m., rats were placed individually for 24 h to assess spontaneous physical activity. After that, on day 42, the same battery of the tests as on day 28 were reassessed.\nThe formalin test was performed 1 h after the R–S test to decrease the interaction with the mechanical stimulus from the previous test. For the same reason, the left hind paws were injected. A needle (U-100 Insulin Syringe, Beckton and Dickinson, Dublin, Ireland) was used. A low-dose intraplantar injection of formalin 50 mcl 0.5% was done, and rats were placed in individual transparent cases for observation. Two independent observers measured the time spent licking or biting the injected paw, and the first (0–5 min) and the second post-injection phase (20–30 min) were reported in sec."}, "[3]": {"test_system": "STZ-treated rats with neuropathy", "assay": "24-hour spontaneous physical activity", "type": "in vivo, rat", "conditions": "5 mg/kg p.o. once daily from day 28, from day 41", "method": "as §1, §2"}, "[4]": {"test_system": "STZ-treated rats with neuropathy", "assay": "Mortality and adverse effects during chronic oral treatment", "type": "in vivo", "conditions": "rat, in vivo, po", "method": "as §3\nas §4, with “After that, on day 42, the same battery of the tests as on day 28 were reassessed.” left out"}}}
{"smiles": "N=C(N)SCCc1ccc(OCc2ccc([N+](=O)[O-])cc2)cc1", "note": "[KB-R7943, [(2-{4-[(4-nitrophenyl)methoxy]phenyl}ethyl)sulfanyl]methanimidamide]", "values": [{"measurement": "immobility time in FST", "setting": "[1]", "value": "131.67 ± 29.80", "unit": "s"}, {"measurement": "effect on formalin test first phase (0–5 min)", "setting": "[2]; 5 mg/kg p.o. once daily, vs. 10 mg/kg groups", "value": "weaker effect"}, {"measurement": "effect on formalin test first phase (0–5 min)", "setting": "[2]; 10 mg/kg p.o. once daily, vs. NP-Veh", "value": "attenuated"}, {"measurement": "effect on formalin test second phase (20–30 min)", "setting": "[2]; amitriptyline 10 mg/kg, KB-R7943 5 and 10 mg/kg p.o. once daily, vs. NPveh, dose-dependent", "value": "attenuated"}, {"measurement": "24-h spontaneous physical activity", "setting": "[3]", "value": "1705.92 ± 237.74", "unit": "beam breaks"}, {"measurement": "mortality during treatment", "setting": "[4]", "value": "No one rat died"}]}
